Reference: patent US9714266B2, “Estra-1,3,5(10),16-tetraene-3-carboxamides for inhibition of 17β-hydroxysteroid dehydrogenase (AKR1C3)” (priority 2013, dated 2017)
In brackets after ≈: the same amount, converted by molar mass. Several values for one entry are separate records, joined by “and”; a condition that tells them apart may be missing. Identical values can stand only once. Like-named read-outs stand apart in the source and are kept apart here.

Assays:
AKR1C3 [1] = molecular target: T1, AKR1C3 (Homo sapiens (Human), UniProt P42330); assay: AKR1C3 enzyme assay (coumberone reduction, fluorescence); type: biochemical; settings: recombinant human AKR1C3, coumberone 0.3 μM, NADPH 10 μM; read-out: AKR1C3 enzyme inhibition IC50
Description: The AKR1C3-inhibitory action of the substances of this invention was measured in the AKR1C3 assay described in the paragraphs which follow. Essentially, the enzyme activity is measured by quantifying the coumberol formed from coumberone ([…]., and […]. AM. CHEM. SOC. 130, 14123-14128 (2008) […]., Bauman, D. R., Penning, T. M., and […]., Proc. Natl. Acad. Sci. USA 103, 13304-13309 (2006)). In this assay, the increase in the highly fluorescent coumberol can be determined by NADPH (nicotinamide adenine dinucleotide phosphate)-dependent reduction of the nonfluorescent coumberone by AKR1C3. […] NM_003739). This was expressed as the GST (glutathione S-transferase) fusion protein in E. coli and purified by means of glutathione-Sepharose affinity chromatography. The GST was removed by thrombin digestion with subsequent size exclusion chromatography (Dufort, I., Rheault, P., Huang, X F., Soucy, P., and Luu-The, V., Endocrinology 140, 568-574 (1999)). […] The concentration of the AKR1C3 was matched to the respective activity of the enzyme preparation and set such that the assay worked within the linear range. Typical concentrations were in the region of 1 nM. The reaction was stopped by adding 5 μl of a stop solution consisting of the inhibitor EM-1404 [F. Labrie et al. U.S. Pat. […] Subsequently, the fluorescence of coumberol was measured at 520 nm (excitation at 380 nm) with a suitable measuring instrument (Pherastar from BMG Labtechnologies).

[2] = Kinetic solubility by laser nephelometry; type: physicochemical; settings: kinetic from dmso stock
Description: The kinetic solubilities of the inventive substances were determined by laser nephelometry.
The data were recorded using the following instruments:
Liquid handling system: Hamilton Star
Nephelometer: Nepheloskan Ascent
The following chemicals and materials were used: […]
disodium hydrogenphosphate dihydrate potassium dihydrogenphosphate
Preparation of phosphate buffer pH 7.4:
• Solution 1: 9.71 g of disodium hydrogenphosphate dihydrate and • 1.65 g of potassium dihydrogenphosphate dissolved in 1 liter of water • Solution 2: 10 mg of gum arabic dissolved in 1 liter of water […]
150 ml of solution 1 and 100 ml of solution 2 were diluted with 750 ml of water.
150 μl of a 10 mM DMSO stock solution were pipetted into a plate (deep-well plate, Abgene, PP, 1.2 ml). The stock solution was diluted with DMSO, which led to a new multi-titre plate (MTP, Greiner bio-one, PS, V-Form) with eight concentrations: 10/5/2.5/1.25/0.625/0.313/0.156 and 0.078 mM. 261 μl of phosphate buffer were transferred into a further plate (96 cliniplate, UB Thermo Electron Corporation) and admixed with 9 μl of the DMSO stock solutions.
The concentration of the DMSO cosolvent was kept constant at 3%.
The plates obtained (cliniplates) were analysed in the nephelometer.

AKR1C3 [3] = molecular target: T1, AKR1C3; assay: AKR1C3 inhibition in a cell-based system (transfected HEK293 cells, coumberol fluorescence); settings: HEK293 cells transfected with AKR1C3 expression plasmid; read-out: Cellular AKR1C3 inhibition IC50
Description: The inhibition of AKR1C3 by the substances described in this invention was measured in a cell-based assay using […] as the substrate for the AKR1C3 (Halim, M., Yee, D. J., and Sames, D., J. AM. CHEM. SOC. 130, 14123-14128 (2008) and Yee, D. J., Balsanek, V., Bauman, D. R., Penning, T. M., and Sames, D., Proc. Natl. Acad. Sci. USA 103, 13304-13309 (2006)) (cf. Example 48).
The cell system used was HEK293 cells (ATCC, USA) (cell culture medium: DMEM, 1.5 g of glucose, 10% FCS, PSG). The cells were transfected with an AKR1C3 expression plasmid (pCMV6-AC-AKR1C3, GenBank Accession No. NM_003739.4) overnight (X-tremeGENE HP, Roche). The next morning, the cells were sown into black 96-well culture plates with a cell density of 40 000 cells/well (Greiner Bio-One, Frickenhausen, Germany). 7 h later, the cells were incubated with the test substances (dissolved in 100× concentration in DMSO, final concentration between 10^−11M and 10^−5M) and […] (dissolved in cell culture medium, final concentration 5×10^−6M) overnight. The following morning, the fluorescence of coumberol was measured at 535 nm (excitation at 355 nm) with a suitable measuring instrument (Mithras, from Berthold). […] The data were normalized (transfected cells without inhibitor, only DMSO=0% inhibition; transfected cells, 10 μM EM-1404 inhibitor [F. Labrie et al. U.S. Pat. No. 6,541,463, 2003]=100% inhibition) and IC50 values were calculated by a 4-parameter fit.

[4] = phosphate buffer with 3% DMSO, aqueous buffer, phosphate buffer pH 7.4, 3% DMSO, read-out: Nephelometric solubility at pH = 7.4

T1 sequence (P42330 whole entry): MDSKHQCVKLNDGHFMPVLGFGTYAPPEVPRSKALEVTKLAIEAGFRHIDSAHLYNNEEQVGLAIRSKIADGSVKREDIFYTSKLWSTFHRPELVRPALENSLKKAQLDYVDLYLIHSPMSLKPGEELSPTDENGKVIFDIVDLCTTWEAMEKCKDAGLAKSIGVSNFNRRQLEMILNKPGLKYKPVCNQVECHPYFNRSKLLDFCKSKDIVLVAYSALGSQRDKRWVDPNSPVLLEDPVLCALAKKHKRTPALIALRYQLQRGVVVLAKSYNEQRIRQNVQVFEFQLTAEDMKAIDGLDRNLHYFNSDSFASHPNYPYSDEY

CN(CC(O)CO)C(=O)c1ccc2c(c1)CC[C@@H]1[C@@H]2CC[C@]2(C)C(c3cncc(F)c3)=CC[C@@H]12 (mixture of isomers) [Example 35, N—[(RS)-2,3-dihydroxypropyl]-17-(5-fluoropyridin-3-yl)-N-methyloestra-1,3,5(10),16-tetraene-3-carboxamide]
IC50 (AKR1C3 [1]): 17 nM | solubility [2, 4]: 22 µg/mL

CC1(C)CC[C@@]2(CC[C@H]3[C@@H]4CCc5cc(C(N)=O)ccc5[C@H]4CC[C@@]32C)OC1=O [EM-1404, reference compound]
solubility [2, 4]: 18 µg/mL (≈ 45.5 µM)

C[C@]12C[C@H](F)[C@@H]3c4ccc(C(N)=O)cc4CC[C@H]3[C@@H]1CC=C2c1cncc(F)c1 [Example 7, 11β-fluoro-17-(5-fluoropyridin-3-yl)oestra-1,3,5(10),16-tetraene-3-carboxamide]
IC50 (AKR1C3 [1]): 27 nM | IC50 (AKR1C3 [3]): 83 nM and 150 nM

C[C@@H](CO)CCNC(=O)c1ccc2c(c1)CC[C@@H]1[C@@H]2CC[C@]2(C)C(c3cncc(F)c3)=CC[C@@H]12 [Example 12, 17-(5-fluoropyridin-3-yl)-N—[(R)-3-(hydroxymethyl)butyl]estra-1,3,5(10),16-tetraene-3-carboxamide]
IC50 (AKR1C3 [1]): 21 nM and 20 nM | IC50 (AKR1C3 [3]): 68 nM and 96 nM and 43 nM and 23 nM

CC(C)[C@H](CO)NC(=O)c1ccc2c(c1)CC[C@@H]1[C@@H]2CC[C@]2(C)C(c3cncc(F)c3)=CC[C@@H]12 [Example 16, 17-(5-fluoropyridin-3-yl)-N—[(R)-1-(hydroxymethyl)-2-methylpropyl]oestra-1,3,5(10),16-tetraene-3-carboxamide]
IC50 (AKR1C3 [1]): 15 nM and 42 nM | IC50 (AKR1C3 [3]): 97 nM and 74 nM

C[C@]12CC[C@@H]3c4ccc(C(=O)N5CCC[C@@H](O)C5)cc4CC[C@H]3[C@@H]1CC=C2c1cncc(F)c1 [Example 17, 17-(5-fluoropyridin-3-yl)oestra-1,3,5(10),16-tetraen-3-yl (R)-3-hydroxypiperidin-1-yl ketone]
IC50 (AKR1C3 [1]): 29 nM and 20 nM | IC50 (AKR1C3 [3]): 34 nM and 28 nM

C[C@]12CC[C@@H]3c4ccc(C(=O)NCCc5nnn[nH]5)cc4CC[C@H]3[C@@H]1CC=C2c1cncc(F)c1 [Example 21, 17-(5-fluoropyridin-3-yl)-N-[2-(1H-tetrazol-5-yl)ethyl]oestra-1,3,5(10),16-tetraene-3-carboxamide]
IC50 (AKR1C3 [1]): 5 nM | solubility ([2]; pH 7.4, aqueous buffer): 158 µg/mL (≈ 334 µM)

C[C@]12CC[C@@H]3c4ccc(C(=O)NCc5nnn[nH]5)cc4CC[C@H]3[C@@H]1CC=C2c1cncc(F)c1 [Example 22, 17-(5-fluoropyridin-3-yl)-N-(1H-tetrazol-5-ylmethyl)oestra-1,3,5(10),16-tetraene-3-carboxamide]
IC50 (AKR1C3 [1]): 5 nM | solubility ([2]; pH 7.4, aqueous buffer): 153 µg/mL (≈ 334 µM)

C[C@]12CC[C@@H]3c4ccc(C(=O)N5CCC[C@H]5c5nnn[nH]5)cc4CC[C@H]3[C@@H]1CC=C2c1cncc(F)c1 [Example 28, 17-(5-fluoropyridin-3-yl)oestra-1,3,5(10),16-tetraen-3-yl (S)-2-(1H-tetrazol-5-yl)pyrrolidin-1-yl ketone]
IC50 (AKR1C3 [1]): 9 nM | solubility ([2]; pH 7.4, aqueous buffer): 166 µg/mL (≈ 333 µM)

CNC(=O)[C@@H]1CCCN1C(=O)c1ccc2c(c1)CC[C@@H]1[C@@H]2CC[C@]2(C)C(c3cncc(F)c3)=CC[C@@H]12 [Example 29, 1-{[17-(5-fluoropyridin-3-yl)oestra-1,3,5(10),16-tetraen-3-yl]carbonyl}-N-methyl-L-prolinamide]
IC50 (AKR1C3 [1]): 10 nM | solubility ([2]; pH 7.4, aqueous buffer): 24 µg/mL (≈ 49.2 µM)

C[C@]12CC[C@@H]3c4ccc(C(=O)NC[C@H](O)CO)cc4CC[C@H]3[C@@H]1CC=C2c1cncc(F)c1 [Example 33, N—[(S)-2,3-dihydroxypropyl]-17-(5-fluoropyridin-3-yl)oestra-1,3,5(10),16-tetraene-3-carboxamide]
IC50 (AKR1C3 [1]): 4 nM and 5 nM | solubility [2, 4]: 80 µg/mL (≈ 178 µM)

C[C@@H](O)CNC(=O)c1ccc2c(c1)CC[C@@H]1[C@@H]2CC[C@]2(C)C(c3cncc(F)c3)=CC[C@@H]12 [Example 38, 17-(5-fluoropyridin-3-yl)-N—[(R)-2-hydroxypropyl]oestra-1,3,5(10),16-tetraene-3-carboxamide]
IC50 (AKR1C3 [1]): 4 nM | solubility ([2]; pH 7.4, aqueous buffer): 145 µg/mL (≈ 334 µM)

C[C@@H](CO)NC(=O)c1ccc2c(c1)CC[C@@H]1[C@@H]2CC[C@]2(C)C(c3cncc(F)c3)=CC[C@@H]12 [Example 40, 17-(5-fluoropyridin-3-yl)-N—[(S)-1-(hydroxymethyl)ethyl]oestra-1,3,5(10),16-tetraene-3-carboxamide]
solubility ([2]; pH 7.4, aqueous buffer): 145 µg/mL (≈ 334 µM)

CC1(CNC(=O)c2ccc3c(c2)CC[C@@H]2[C@@H]3CC[C@]3(C)C(c4cncc(F)c4)=CC[C@@H]23)COC1 [Example 43, 17-(5-fluoropyridin-3-yl)-N-[(3-methyloxetan-3-yl)methyl]oestra-1,3,5(10),16-tetraene-3-carboxamide]
IC50 (AKR1C3 [1]): 7 nM | solubility ([2]; pH 7.4, aqueous buffer): 154 µg/mL (≈ 334 µM)

C[C@]12CC[C@@H]3c4ccc(C(=O)NCCOCCO)cc4CC[C@H]3[C@@H]1CC=C2c1cncc(F)c1 [Example 46, 17-(5-fluoropyridin-3-yl)-N-[2-(2-hydroxyethoxy)ethyl]oestra-1,3,5(10),16-tetraene-3-carboxamide]
IC50 (AKR1C3 [1]): 6 nM

C[C@]12CC[C@@H]3c4ccc(C(=O)NCCS(N)(=O)=O)cc4CC[C@H]3[C@@H]1CC=C2c1cncnc1 [Example 47, 17-(pyrimidin-5-yl)-N-(2-sulphamoylethyl)oestra-1,3,5(10),16-tetraene-3-carboxamide]
IC50 (AKR1C3 [1]): 119 nM
